Publication PMC11440381, “Facile and scale-up syntheses of high-performance enzyme@meso-HOF biocatalysts” (Chemical Science, 2024)

Biological target: T1, horseradish peroxidase (HRP) (Armoracia rusticana, UniProt P00433)
T1 construct: gene PRXC1A; free or encapsulated in HOF-PTBA
T1 sequence (P00433 31-338): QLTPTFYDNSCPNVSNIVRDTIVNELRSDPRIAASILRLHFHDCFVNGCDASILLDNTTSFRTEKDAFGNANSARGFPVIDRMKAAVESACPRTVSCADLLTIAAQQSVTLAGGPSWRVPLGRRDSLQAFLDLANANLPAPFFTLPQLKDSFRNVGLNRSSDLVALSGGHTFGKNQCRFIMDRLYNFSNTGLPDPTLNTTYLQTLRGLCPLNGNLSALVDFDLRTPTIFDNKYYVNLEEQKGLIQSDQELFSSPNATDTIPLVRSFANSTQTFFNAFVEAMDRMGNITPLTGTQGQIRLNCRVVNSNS
Assay: GOx-HRP cascade, UV-vis of oxidised TMB
Assay type: biochemical
Conditions: co-substrate H2O2 made by GOx from glucose; free GOx&HRP mixture and GOx&HRP@HOF-PTBA both tested

Cc1cc(-c2cc(C)c(N)c(C)c2)cc(C)c1N [TMB]
GOx-HRP cascade, UV-vis of oxidised TMB: H2O2 subsequently acting as a substrate for HRP to catalyze the oxidation of TMB
